Reference: patent US10766869B2, “Triazoles for the treatment of demyelinating dieases” (Vertex Pharmaceuticals Incorporated, priority 2015, dated 2020)
Where two headings read alike, the source gives them in different places.

Test system: primary rat mixed cortical cells
Assay: In vitro myelination assay (MBP positive myelin strands, fold myelin pixels above background)
Type: cell-based
Conditions: Rattus norvegicus; for fold induction at 1 µM: 1.0 μM compound; for fold induction at 10 µM: 10.0 μM compound
Outline: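 Myelination read as total MBP-immunopositive strand pixels per well, imaged at 10× after fixation on day 14 and expressed relative to untreated wells, at 1.0 and 10.0 μM. Cells: dissociated postnatal day 1 rat cortex, cultured two weeks with compound, re-dosed at days 6 and 10.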

[1] = read-out: Fold myelin pixels above background relative to baseline of no added compound
[2] = relative to baseline of no added compound, read-out: Fold myelin pixels above background, 1.0 μM
[3] = relative to baseline of no added compound, read-out: Fold myelin pixels above background, 10.0 μM
[4] = relative to baseline of no added compound, read-out: Fold myelin pixels above background

Row | Compound | fold induction at 1 µM [1] | fold induction at 10 µM [1] | fold induction at 1 µM [2] | fold induction at 10 µM [3] | further results
1 | Cc1cc(Nc2ncn(-c3ccc(F)c(F)c3)n2)c(F)c(N2CCN(C3COC3)CC2)c1 [Compound 998, 1-(3,4-difluorophenyl)-N-[2-fluoro-5-methyl-3-[4-(oxetan-3-yl)piperazin-1-yl]phenyl]-1,2,4-triazol-3-amine] | 10 to 100 | 1 to 10 |  |  | 
2 | Cc1cc(Nc2ncn(-c3ccccc3)n2)cc(N2CCNCC2)c1 [Compound 159, N-(3-methyl-5-piperazin-1-yl-phenyl)-1-phenyl-1,2,4-triazol-3-amine] |  |  | 1000 to 10000 | ≤ 1 | 
3 | Cc1cc(Nc2ncn(-c3ccc(C#N)cc3)n2)cc(N2CCN(C)CC2)c1 [Compound 81, 4-[3-[3-methyl-5-(4-methylpiperazin-1-yl)anilino]-1,2,4-triazol-1-yl]benzonitrile] |  |  | 1 to 10 | ≤ 1 | 
4 | Fc1cc(Nc2ncn(-c3cccc(F)c3)n2)cc(NC2CNC2)c1 [Compound 351, N1-(azetidin-3-yl)-5-fluoro-N3-[1-(3-fluorophenyl)-1,2,4-triazol-3-yl]benzene-1,3-diamine] |  |  | 10 to 100 | ≤ 1 | 
5 | c1ccc(-n2cnc(Nc3cc(C4CCOCC4)cc(N4CCOCC4)c3)n2)cc1 [Compound 251, N-(3-morpholino-5-tetrahydropyran-4-yl-phenyl)-1-phenyl-1,2,4-triazol-3-amine] |  |  | 100 to 1000 | 1 to 10 | 
6 | Cc1cc(Nc2ncn(-c3cc(F)cc(F)c3)n2)cc(N2CCC3(CC2)COC3)c1 [Compound 279, 1-(3,5-difluorophenyl)-N-[3-methyl-5-(2-oxa-7-azaspiro[3.5]nonan-7-yl)phenyl]-1,2,4-triazol-3-amine] |  |  | 100 to 1000 | 100 to 1000 | 
7 | C1=C(c2cc(Nc3ncn(-c4ccccc4)n3)cc(C3=CCOCC3)c2)CCOC1 [Compound 315, N-[3,5-bis(3,6-dihydro-2H-pyran-4-yl)phenyl]-1-phenyl-1,2,4-triazol-3-amine] |  |  | 100 to 1000 | 100 to 1000 | 
8 | COCC(=O)N1CC(C)(Nc2cc(C)cc(Nc3ncn(-c4cc(F)cc(F)c4)n3)c2)C1 [Compound 1075, 1-[3-[3-[[1-(3,5-difluorophenyl)-1,2,4-triazol-3-yl]amino]-5-methyl-anilino]-3-methyl-azetidin-1-yl]-2-methoxy-ethanone] | 1 to 10 | ≤ 1 |  |  | 
9 | FC(F)(F)c1cc(Nc2ncn(-c3cnccn3)n2)cc(N2CCOCC2)c1 [Compound 357, N-[3-morpholino-5-(trifluoromethyl)phenyl]-1-pyrazin-2-yl-1,2,4-triazol-3-amine] |  |  | 1 to 10 | 1 to 10 | 
10 | Cc1cc(Nc2ncn(-c3ccccc3)n2)cc(N2CCN(C3CCCC3)CC2)c1 [Compound 87, N-[3-(4-cyclopentylpiperazin-1-yl)-5-methyl-phenyl]-1-phenyl-1,2,4-triazol-3-amine] |  |  | 100 to 1000 | 100 to 1000 | 
11 | CC(=O)N1CCCC(Nc2cc(C)cc(Nc3ncn(-c4ccccc4)n3)c2)C1 (stereo not drawn) [Compound 115, 1-[3-[3-methyl-5-[(1-phenyl-1,2,4-triazol-3-yl)amino]anilino]-1-piperidyl]ethanone] |  |  | 100 to 1000 | 100 to 1000 | 
12 | Cc1cc(Nc2ncn(-c3cc(F)cc(Cl)c3)n2)cc(N2CCN(C3COC3)CC2)c1 [Compound 32, 1-(3-chloro-5-fluoro-phenyl)-N-[3-methyl-5-[4-(oxetan-3-yl)piperazin-1-yl]phenyl]-1,2,4-triazol-3-amine] |  |  | 1000 to 10000 | 100 to 1000 | 
13 | [2H]C(C)(C)N1CCN(c2cc(C)cc(Nc3ncn(-c4ccccc4)n3)c2)CC1 [Compound 929, N-[3-[4-(1-deuterio-1-methyl-ethyl)piperazin-1-yl]-5-methyl-phenyl]-1-phenyl-1,2,4-triazol-3-amine] | 10 to 100 | ≤ 1 |  |  | 
14 | Cc1cc(Nc2ncn(-c3cccc(C(F)(F)F)c3)n2)cc(N2CCCC2)c1 [Compound 190, N-(3-methyl-5-pyrrolidin-1-yl-phenyl)-1-[3-(trifluoromethyl)phenyl]-1,2,4-triazol-3-amine] |  |  | 1 to 10 | ≤ 1 | 
15 | Cc1cc(Nc2ncn(-c3cc(F)cc(F)c3)n2)cc(N2CCOC(CO)C2)c1 (stereo not drawn) [Compound 1073, [4-[3-[[1-(3,5-difluorophenyl)-1,2,4-triazol-3-yl]amino]-5-methyl-phenyl]morpholin-2-yl]methanol] | 10 to 100 | ≤ 1 |  |  | 
16 | [2H]C1([2H])N(C)C([2H])([2H])C([2H])([2H])N(c2cc(C)cc(Nc3ncn(-c4ccccc4)n3)c2)C1([2H])[2H] [Compound 1111, N-[3-methyl-5-(2,2,3,3,5,5,6,6-octadeuterio-4-methyl-piperazin-1-yl)phenyl]-1-phenyl-1,2,4-triazol-3-amine] | 100 to 1000 | ≤ 1 |  |  | 
17 | [2H]C1([2H])OC([2H])([2H])C([2H])([2H])N(c2cc(C)cc(Nc3ncn(-c4cc(F)cc(F)c4)n3)c2)C1([2H])[2H] [Compound 982, 1-(3,5-difluorophenyl)-N-[3-methyl-5-(2,2,3,3,5,5,6,6-octadeuteriomorpholin-4-yl)phenyl]-1,2,4-triazol-3-amine] | 10 to 100 | ≤ 1 |  |  | 
18 | Cc1cc(Nc2ncn(-c3cc(F)cc(F)c3)n2)cc(N2CCN(C)CC2)n1 [Compound 365, N-[1-(3,5-difluorophenyl)-1,2,4-triazol-3-yl]-2-methyl-6-(4-methylpiperazin-1-yl)pyridin-4-amine] |  |  | 10 to 100 | ≤ 1 | 
19 | Fc1cc(F)cc(-n2cnc(Nc3cc(Cl)cc(N4CCOCC4)c3)n2)c1 [Compound 426, N-(3-chloro-5-morpholino-phenyl)-1-(3,5-difluorophenyl)-1,2,4-triazol-3-amine] |  |  |  |  | fold induction at 1 µM [4]: 1000 to 10000; fold induction at 10 µM [4]: 1000 to 10000
20 | Fc1cc(Nc2ncn(-c3ccccc3F)n2)cc(N2CCOCC2)c1 [Compound 49, N-(3-fluoro-5-morpholino-phenyl)-1-(2-fluorophenyl)-1,2,4-triazol-3-amine] |  |  | ≤ 1 | 10 to 100 | 
21 | Cc1cc(Nc2ncn(-c3ccc(F)cc3)n2)cc(N2CC(N3CCOCC3)C2)c1 [Compound 606, 1-(4-fluorophenyl)-N-[3-methyl-5-(3-morpholinoazetidin-1-yl)phenyl]-1,2,4-triazol-3-amine] |  |  |  |  | fold induction at 1 µM [4]: 1 to 10; fold induction at 10 µM [4]: 1 to 10
22 | CC1(N2CCN(c3cc(C(F)F)cc(Nc4ncn(-c5ccc(F)c(F)c5)n4)n3)CC2)COC1 [Compound 849, 4-(difluoromethyl)-N-[1-(3,4-difluorophenyl)-1,2,4-triazol-3-yl]-6-[4-(3-methyloxetan-3-yl)piperazin-1-yl]pyridin-2-amine] | 10 to 100 | 10 to 100 |  |  | 
23 | Fc1cc(F)cc(-n2cnc(Nc3cc(N4CCN(C5COC5)CC4)cc(N4CCN(C5COC5)CC4)n3)n2)c1 [Compound 726, N-[1-(3,5-difluorophenyl)-1,2,4-triazol-3-yl]-4,6-bis[4-(oxetan-3-yl)piperazin-1-yl]pyridin-2-amine] |  |  |  |  | fold induction at 1 µM [4]: 1 to 10; fold induction at 10 µM [4]: 1 to 10
24 | Cc1cc(Nc2ncn(-c3cc(F)cc(F)c3)n2)cc(O[C@@H]2CCN(C3COC3)C2)c1 [Compound 178, 1-(3,5-difluorophenyl)-N-[3-methyl-5-[(3R)-1-(oxetan-3-yl)pyrrolidin-3-yl]oxy-phenyl]-1,2,4-triazol-3-amine] |  |  | 1000 to 10000 | 1 to 10 | 
25 | CCN1CC2CC1CN2c1cc(C)cc(Nc2ncn(-c3cc(F)cc(F)c3)n2)c1 (stereo not drawn) [Compound 996, 1-(3,5-difluorophenyl)-N-[3-(5-ethyl-2,5-diazabicyclo[2.2.1]heptan-2-yl)-5-methyl-phenyl]-1,2,4-triazol-3-amine] | 1 to 10 | ≤ 1 |  |  | 
26 | Cc1cc(Nc2ncn(-c3cc(F)cc(F)c3)n2)cc(N2CCCC3COCC32)c1 (stereo not drawn) [Compound 981, N-[3-(3,4,4a,5,7,7a-hexahydro-2H-furo[3,4-b]pyridin-1-yl)-5-methyl-phenyl]-1-(3,5-difluorophenyl)-1,2,4-triazol-3-amine] | 1 to 10 | 10 to 100 |  |  | 
27 | Cc1cc(Nc2ncn(-c3cc(F)cc(F)c3)n2)cc(NC2CCN(CC3CCOC3)CC2)c1 (stereo not drawn) [Compound 1045, N3-[1-(3,5-difluorophenyl)-1,2,4-triazol-3-yl]-5-methyl-N1-[1-(tetrahydrofuran-3-ylmethyl)-4-piperidyl]benzene-1,3-diamine] | 1 to 10 | ≤ 1 |  |  | 
28 | CN(C)C1CCN(c2cc(F)cc(Nc3ncn(-c4ccc(F)cc4F)n3)c2)C1 (stereo not drawn) [Compound 347, 1-(2,4-difluorophenyl)-N-[3-[3-(dimethylamino)pyrrolidin-1-yl]-5-fluoro-phenyl]-1,2,4-triazol-3-amine] |  |  | ≤ 1 | ≤ 1 | 
29 | FC(F)c1cc(Nc2ncn(-c3cccnc3)n2)cc(N2CCN(C3COC3)CC2)c1 [Compound 209, N-[3-(difluoromethyl)-5-[4-(oxetan-3-yl)piperazin-1-yl]phenyl]-1-(3-pyridyl)-1,2,4-triazol-3-amine] |  |  | 100 to 1000 | 100 to 1000 | 
30 | COCCN(C)C(=O)C1CN(c2cc(C)cc(Nc3ncn(-c4cc(F)cc(F)c4)n3)c2)C1 [Compound 824, 1-[3-[[1-(3,5-difluorophenyl)-1,2,4-triazol-3-yl]amino]-5-methyl-phenyl]-N-(2-methoxyethyl)-N-methyl-azetidine-3-carboxamide] | 10 to 100 | 1 to 10 |  |  | 
